Earlier results on 1 sequence are cited in publication PMC3845493 (Molecular pharmaceutics, 2013).

In the case of “PARVGLGITTVLTMTTQSSGSRA [Peptide M2GlyR]”, the “Aggregation in aqueous solutions” value is reported as “tendency to aggregate in aqueous solutions”.
